Molecular target: factor B (Homo sapiens, UniProt P00751)
Experiment: factor B inhibition assay of Biological Example 1
Format: biochemical
Set-up: CVF-Bb complex prepared from purified cobra venom factor (1 μM), recombinant human complement factor B; made in house; host or cells: drosophila cells (factor B); E. coli (factor D used to form the complex)
Conditions: IC50 (nM), assay of Biological Example 1 (Table 1)

factor B, sequence (P00751 260-764 limits assumed): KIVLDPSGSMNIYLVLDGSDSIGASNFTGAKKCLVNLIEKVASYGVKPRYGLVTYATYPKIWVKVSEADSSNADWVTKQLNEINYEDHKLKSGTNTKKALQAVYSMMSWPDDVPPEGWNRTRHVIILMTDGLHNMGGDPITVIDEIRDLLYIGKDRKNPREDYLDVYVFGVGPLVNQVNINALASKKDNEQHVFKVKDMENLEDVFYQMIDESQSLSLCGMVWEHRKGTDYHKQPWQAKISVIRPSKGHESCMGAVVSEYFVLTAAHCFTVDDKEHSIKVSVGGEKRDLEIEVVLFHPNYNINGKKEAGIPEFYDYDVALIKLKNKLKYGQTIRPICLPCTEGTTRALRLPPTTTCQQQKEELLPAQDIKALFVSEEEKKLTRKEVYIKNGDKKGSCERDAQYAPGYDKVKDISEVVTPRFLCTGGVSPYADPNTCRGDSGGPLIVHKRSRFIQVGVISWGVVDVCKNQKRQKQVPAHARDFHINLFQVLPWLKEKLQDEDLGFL
factor B, sequence (Q91132 23-649 partner limits assumed): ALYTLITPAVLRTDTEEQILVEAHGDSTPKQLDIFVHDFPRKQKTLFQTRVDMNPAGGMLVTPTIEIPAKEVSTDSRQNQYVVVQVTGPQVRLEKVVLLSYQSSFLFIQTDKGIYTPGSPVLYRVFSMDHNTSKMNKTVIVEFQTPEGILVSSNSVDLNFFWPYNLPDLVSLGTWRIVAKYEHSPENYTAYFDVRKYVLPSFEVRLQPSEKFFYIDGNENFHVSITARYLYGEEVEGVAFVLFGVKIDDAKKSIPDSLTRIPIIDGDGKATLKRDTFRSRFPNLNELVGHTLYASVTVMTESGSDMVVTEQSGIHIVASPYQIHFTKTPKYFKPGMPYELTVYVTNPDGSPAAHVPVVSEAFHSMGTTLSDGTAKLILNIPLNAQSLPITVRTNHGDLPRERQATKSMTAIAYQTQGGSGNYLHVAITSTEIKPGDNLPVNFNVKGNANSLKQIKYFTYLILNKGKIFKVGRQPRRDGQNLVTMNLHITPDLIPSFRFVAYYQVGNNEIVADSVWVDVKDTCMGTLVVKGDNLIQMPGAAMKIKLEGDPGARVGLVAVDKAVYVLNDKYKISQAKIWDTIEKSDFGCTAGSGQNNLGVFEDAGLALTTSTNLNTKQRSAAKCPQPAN
factor B, sequence (Q91132 733-984 partner limits assumed): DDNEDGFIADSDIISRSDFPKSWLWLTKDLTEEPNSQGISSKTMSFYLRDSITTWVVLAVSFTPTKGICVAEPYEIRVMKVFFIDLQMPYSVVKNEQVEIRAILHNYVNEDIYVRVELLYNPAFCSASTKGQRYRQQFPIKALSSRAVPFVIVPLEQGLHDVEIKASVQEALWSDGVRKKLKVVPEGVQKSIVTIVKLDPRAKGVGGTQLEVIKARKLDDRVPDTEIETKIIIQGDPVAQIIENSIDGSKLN
factor B, sequence (Q91132 1264-1642 partner limits assumed): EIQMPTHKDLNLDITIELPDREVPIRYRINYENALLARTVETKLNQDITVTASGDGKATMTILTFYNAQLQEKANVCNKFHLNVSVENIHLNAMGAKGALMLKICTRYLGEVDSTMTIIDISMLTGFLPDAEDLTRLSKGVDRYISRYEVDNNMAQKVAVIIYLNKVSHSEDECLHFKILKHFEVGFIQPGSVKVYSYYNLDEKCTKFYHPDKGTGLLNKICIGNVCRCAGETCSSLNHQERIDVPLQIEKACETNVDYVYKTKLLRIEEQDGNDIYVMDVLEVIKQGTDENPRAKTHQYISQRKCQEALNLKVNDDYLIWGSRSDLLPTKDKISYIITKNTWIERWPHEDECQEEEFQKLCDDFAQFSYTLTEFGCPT

`Cc1cc(Cl)c(C(C)(O)c2nc3cc(C#N)ccc3[nH]2)c2cc[nH]c12` (single isomer, unassigned; (-)) [79-E b) (−), (−)-2-(1-(5-chloro-7-methyl-1H-indol-4-yl)-1-hydroxyethyl)-1H-benzo[d]imidazole-5-carbonitrile] and `Cc1cc(Br)c(C(C)(O)c2nc3cc(C#N)ccc3[nH]2)c2cc[nH]c12` (single isomer, unassigned) [79-F b) (tr = 3.8 min), (−) or (+)-2-(1-(5-bromo-7-methyl-1H-indol-4-yl)-1-hydroxyethyl)-1H-benzo[d]imidazole-5-carbonitrile] are within 1.5-fold of each other in IC50: 350 nM for the first, 270 nM for the second.

Compared with `Cc1cc(C)c2[nH]ccc2c1C(C)(c1nc2cc(C#N)ccc2[nH]1)N(C)C` (racemic) [Example 104-B, (±)-2-(1-(5,7-dimethyl-1H-indol-4-yl)-1-(dimethylamino)ethyl)-1H-benzo[d]imidazole-5-carbonitrile], `COc1cc(C)c2[nH]ccc2c1C(C)(C)c1nc2cc(C#N)ccc2[nH]1` [Example 122-C, 2-(2-(5-Methoxy-7-methyl-1H-indol-4-yl)propan-2-yl)-1H-benzo[d]imidazole-5-carbonitrile] is 52-fold lower in IC50: 260 nM for the first, 5 nM for the second. The second is the more potent here.

`COc1cc(C)c2[nH]ccc2c1C(C)(O)c1nc2cc(C#N)ccc2[nH]1` (racemic) [26-C b) (−), (−)-2-(1-hydroxy-1-(5-methoxy-7-methyl-1H-indol-4-yl)ethyl)-1H-benzo[d]imidazole-5-carbonitrile] and `Cc1cc(OC(F)F)c(C(C)(O)c2nc3cc(C#N)ccc3[nH]2)c2cc[nH]c12` (racemic) [6-B b) (−), (−)-2-(1-(5-(difluoromethoxy)-7-methyl-1H-indol-4-yl)-1-hydroxyethyl)-1H-benzo[d]imidazole-5-carbonitrile] are within 1.5-fold of each other in IC50: 80 nM for the first, 110 nM for the second.

First: CNC(c1nc2cc(C#N)ccc2[nH]1)(c1c(OC)cc(C)c2[nH]ccc12)C(F)(F)F (single isomer, unassigned; (+)) [38-B b) (+), (+)-2-(2,2,2-trifluoro-1-(5-methoxy-7-methyl-1H-indol-4-yl)-1-(methylamino)ethyl)-1H-benzo[d]imidazole-5-carbonitrile]
Second: COc1cc(C)c2[nH]ccc2c1C(c1nc2cc(C#N)ccc2[nH]1)(N(C)C)C(F)(F)F (racemic) [Example 38-C, (±)-2-(1-(Dimethylamino)-2,2,2-trifluoro-1-(5-methoxy-7-methyl-1H-indol-4-yl)ethyl)-1H-benzo[d]imidazole-5-carbonitrile]
The IC50 of the first is 3.5-fold lower: 140 nM for the first, 490 nM for the second. The first is the more potent here.

Compared with `Cc1cc(C)c2[nH]ccc2c1Cc1nc2cc(C#N)c(Cl)cc2[nH]1` [Example 63-I], `Cc1cc(C)c2[nH]ccc2c1Cc1nc2c(C)c(C#N)ccc2[nH]1` [Example 63-E] is 230-fold lower in IC50: 72600 nM for the first, 320 nM for the second.

Going from `Cc1cc(OC(C)C)c(C(N)c2nc3cc(C#N)ccc3[nH]2)c2cc[nH]c12` (racemic) [Example 40, (±)-2-(Amino(5-isopropoxy-7-methyl-1H-indol-4-yl)methyl)-1H-benzo[d]imidazole-5-carbonitrile] to `COc1cc(C)c2[nH]ccc2c1C(OC)c1nc2cc(C#N)ccc2[nH]1` (racemic) [30-B b) (+), (+)-2-(methoxy(5-methoxy-7-methyl-1H-indol-4-yl)methyl)-1H-benzo[d]imidazole-5-carbonitrile], the IC50 rises from 50 nM to 220 nM (4.4-fold).

First: C=Cc1cc(C)c2[nH]ccc2c1Cc1nc2cc(C#N)ccc2[nH]1 [Example 63-C]
Second: Cc1cc(CO)c2[nH]ccc2c1Cc1nc2cc(C#N)ccc2[nH]1 [Example 113-F, 2-((7-(Hydroxymethyl)-5-methyl-1H-indol-4-yl)methyl)-1H-benzo[d]imidazole-5-carbonitrile]
The IC50 of the first is 110-fold lower: 90 nM for the first, 9600 nM for the second.

Compared with `COc1cc(F)c2[nH]ccc2c1Cc1nc2cc(C#N)ccc2[nH]1` [Example 21-B, 2-((7-Fluoro-5-methoxy-1H-indol-4-yl)methyl)-1H-benzo[d]imidazole-5-carbonitrile], `[2H]C([2H])([2H])Oc1cc(C)c2[nH]ccc2c1Cc1nc2cc(C#N)ccc2[nH]1` [Example 20-D] is 39-fold lower in IC50: 3140 nM for the first, 80 nM for the second. The second is the more potent here.

Compared with `COc1cc(C)c2[nH]ccc2c1C(OC)(c1nc2cc(C#N)ccc2[nH]1)C1CC1` (centres unmarked) [Example 27-D], `[2H]C([2H])([2H])OC(C)(c1nc2cc(C#N)ccc2[nH]1)c1c(OC)cc(C)c2[nH]ccc12` (single isomer, unassigned; (-)) [27-F b) (−), (−)-2-(1-(^2H3)methoxy-1-(5-methoxy-7-methyl-1H-indol-4-yl)ethyl)-1H-benzo[d]imidazole-5-carbonitrile] is 2.2-fold lower in IC50: 20 nM for the first, 9 nM for the second. The second is the more potent here.

Going from `CCc1cc(C)c2[nH]cc3c2c1C(O)(c1nc2cc(C#N)ccc2[nH]1)CC3` (single isomer, unassigned) [94 b) (tr = 6.3 min), (−) or (+)-2-(6-ethyl-5-hydroxy-8-methyl-1,3,4,5-tetrahydrobenzo[cd]indol-5-yl)-1H-benzo[d]imidazole-5-carbonitrile] to `CCc1cc(C)c2[nH]cc(C#N)c2c1Cc1nc2cc(C#N)ccc2[nH]1` [Example 90, 2-((3-Cyano-5-ethyl-7-methyl-1H-indol-4-yl)methyl)-1H-benzo[d]imidazole-5-carbonitrile], the IC50 falls from 1590 nM to 110 nM (14-fold). The second is the more potent here.

First: Cc1cc(Br)c(C(C)(O)c2nc3cc(C#N)ccc3[nH]2)c2cc[nH]c12 (single isomer, unassigned) [79-F b) (tr = 2.2 min), (+) or (−)-2-(1-(5-bromo-7-methyl-1H-indol-4-yl)-1-hydroxyethyl)-1H-benzo[d]imidazole-5-carbonitrile]
Second: Cc1cc(S(C)(=O)=O)c(C(C)(N)c2nc3cc(C#N)ccc3[nH]2)c2cc[nH]c12 (single isomer, unassigned; (-)) [13-E b) (−), (−)-2-(1-Amino-1-(7-methyl-5-(methylsulfonyl)-1H-indol-4-yl)ethyl)-1H-benzo[d]imidazole-5-carbonitrile]
The IC50 of the first is 24-fold lower: 60 nM for the first, 1410 nM for the second. The first is the more potent here.

Compared with `Cc1cc(C2CC2)c(C(O)(c2nc3cc(C#N)ccc3[nH]2)C(F)(F)F)c2cc[nH]c12` (single isomer, unassigned; (+)) [80-E b) (+), (+)-2-(1-(5-cyclopropyl-7-methyl-1H-indol-4-yl)-2,2,2-trifluoro-1-hydroxyethyl)-1H-benzo[d]imidazole-5-carbonitrile], `COc1cc(C)c2[nH]ccc2c1C(O)(c1nc2cc(C#N)ccc2[nH]1)C(F)(F)F` (single isomer, unassigned; (-)) [33-B b) (−), (−)-2-(2,2,2-trifluoro-1-hydroxy-1-(5-methoxy-7-methyl-1H-indol-4-yl)ethyl)-1H-benzo[d]imidazole-5-carbonitrile] is 3.6-fold lower in IC50: 180 nM for the first, 50 nM for the second.

`COc1cc(C)c2[nH]ccc2c1C(O)c1nc2cc(C#N)ccc2o1` (single isomer, unassigned; (+)) [125-B b) (+), (+)-2-(hydroxy(5-methoxy-7-methyl-1H-indol-4-yl)methyl)benzo[d]oxazole-5-carbonitrile] and `COc1cc(C)c2[nH]ccc2c1C(C)(N)c1nc2cc(C#N)ccc2o1` (single isomer, unassigned; (+)) [131-B b) (+), (+)-2-(1-amino-1-(5-methoxy-7-methyl-1H-indol-4-yl)ethyl)benzo[d]oxazole-5-carbonitrile] are within 1.5-fold of each other in IC50: 180 nM for the first, 140 nM for the second.

First: COc1cc(C)c2[nH]ccc2c1C(OCC(=O)O)(c1nc2cc(C#N)ccc2[nH]1)C(F)(F)F (single isomer, unassigned; (+)) [35-C (+), (+)-2-(1-(5-cyano-1H-benzo[d]imidazol-2-yl)-2,2,2-trifluoro-1-(5-methoxy-7-methyl-1H-indol-4-yl)ethoxy)acetic acid]
Second: CCc1cc(C)c2[nH]ccc2c1C(NC)(c1nc2cc(C#N)ccc2[nH]1)C(F)(F)F (single isomer, unassigned; (+)) [107-B b) (+), (+)-2-(1-(5-ethyl-7-methyl-1H-indol-4-yl)-2,2,2-trifluoro-1-(methylamino)ethyl)-1H-benzo[d]imidazole-5-carbonitrile]
The IC50 of the first is 35-fold higher: 4870 nM for the first, 140 nM for the second.

Going from `Cc1cc(C)c2[nH]cc(-c3cccnc3)c2c1C(O)c1nc2cc(C#N)ccc2[nH]1` (single isomer, unassigned) [120 b) (tr = 2.25 min), (+)- or (−)-2-((5,7-dimethyl-3-(pyridin-3-yl)-1H-indol-4-yl)(hydroxy)methyl)-1H-benzo[d]imidazole-5-carbonitrile] to `Cc1cc(C)c2[nH]cc(Cl)c2c1Cc1nc2cc(C#N)ccc2[nH]1` [Example 86, 2-((3-Chloro-5,7-dimethyl-1H-indol-4-yl)methyl)-1H-benzo[d]imidazole-5-carbonitrile], the IC50 rises from 120 nM to 270 nM (2.2-fold). The first is the more potent here.

Compared with `CCc1cc(C)c2[nH]ccc2c1C(NC)(c1nc2cc(C#N)ccc2[nH]1)C(F)(F)F` (single isomer, unassigned; (-)) [107-B b) (−), (−)-2-(1-(5-ethyl-7-methyl-1H-indol-4-yl)-2,2,2-trifluoro-1-(methylamino)ethyl)-1H-benzo[d]imidazole-5-carbonitrile], `CNC(c1nc2cc(C#N)ccc2[nH]1)(c1c(S(C)(=O)=O)cc(C)c2[nH]ccc12)C(F)(F)F` (single isomer, unassigned; (+)) [16-B b) (+), (+)-2-(2,2,2-trifluoro-1-(7-methyl-5-(methylsulfonyl)-1H-indol-4-yl)-1-(methylamino)ethyl)-1H-benzo[d]imidazole-5-carbonitrile] is 1600-fold higher in IC50: 3 nM for the first, 4740 nM for the second.

Going from `CCOc1cc(C)c2[nH]ccc2c1C(CN)c1nc2cc(C#N)ccc2[nH]1` (racemic) [Example 44-C, (±)-2-(2-amino-1-(5-ethoxy-7-methyl-1H-indol-4-yl)ethyl)-1H-benzo[d]imidazole-5-carbonitrile] to `C=C(c1nc2cc(C#N)ccc2[nH]1)c1c(OC)cc(C)c2[nH]ccc12` [Example 115, 2-(1-(5-Methoxy-7-methyl-1H-indol-4-yl)vinyl)-1H-benzo[d]imidazole-5-carbonitrile], the IC50 falls from 870 nM to 30 nM (29-fold). The second is the more potent here.

Work on `[2H]C([2H])([2H])Oc1cc(Cl)c2[nH]ccc2c1C(O)c1nc2cc(C#N)ccc2[nH]1` (centres unmarked) [Example 24-E] yielded an IC50 of 1110 nM.
